Legend:
[1] = system: CD68+ cells; assay: Immunohistochemistry of macrophages/activated microglia in ischemic brain; format: in vivo; details: male mice, 3 nmol/g, 24 h of insult; versus TMyc
Protocol: The brains of animals injected one hour af ter the initiation of the photothrombotic damage with vehicle (saline), TMyc or TT1Ct (3 nmol/g) were process ed and cryoprote cted as before indicated. The duration of damage before sa cri f i ce was 5 h (male and female) or 24 h (male).
Coronal froze n se ctions were incubated with blocking solution as des cribe d in flota tion for 1 h at room temperature and then overnight with prima ry antibodies diluted in 4% goat se rum and 0.3% Triton X-100 in PBS at 4°C. After was hing, slides were incubated 1 h with Alexa Fluor 546- conjugated goat anti-rabbit or AlexaFluor 647- conjugated goat anti-mouse se condary antibodies to visua liz e the prima ry antibodies and DAPI (5 μg/ml). Only for Iba1 sta ining, blocking solution was 2.5% BS A, 5% goat se rum, 0.5% Triton X-100 in PBS, and se ctions were incubated with prima ry antibody 24 h at RT follow ed by was hing and Alexa Fluor 546-conjugated goat anti-rabbit and DAPI incubation for 1 h. Sections were then was hed in PBS, mounted on slides , dried for 15 min at 37 °C on a hot plate, or air dried overnight and then cover slipped with DPX or Prolong Diamond. Ce ll Obs erve d images were obtained with Zeiss microscope Observe r.Z1 using a 10x Plan-Apochromatic objective. […]

[2] = system: neurons of primary cortical cultures; assay: Neuronal viability (MTT) in non-stimulated cultures; format: cell-based, rat
Protocol: Cultures were prepared from cerebral cortex of 18-day-old Wistar rat embryos, both genders indistinctly included. Unless otherwise indicated, glial growth was inhibited after 7 days in vitro (DIVs), experimental treatments taking place after 12 DIVs. These cultures present a high percentage of neurons, combined with glial cells, mostly astrocytes. To induce excitotoxicity, cultures were incubated with NMDA (100 µM) and its co-agonist glycine (10 µM), herein denoted simply as NMDA, which induce a strong excitotoxic response in mature neurons but have no effect on astrocyte viability,[47]. When indicated, cultures were preincubated for 30 min with indicated concentrations of Tat-derived CPPs before NMDA treatment, peptides being kept in the medium along treatment. Total cell or neuronal viability assessment was established by the thiazolyl blue formazan (MTT) reduction assay. Further details are provided as Supplementary material. […]
skull for 10 min. Br ain injury encompas se s damage to vas cular endothelium, platelet activation, and subs equent microvascula r thrombotic occlus ion of the irradiate d region. The ar eas underneath this ste reotaxic position that result irradiate d ar e the prima ry motor cortex and the prima ry soma tos ens ory cortex (hindlimb and forelimb). Once completed surgery, the incision was sutured, and mice were allowed to recover. […]

[3] = Beam walking test after photothrombotic ischemia; format: in vivo, mice; details: male mice

## Ac-YGRKKRRQRRRPPFVLFHKIPLDG-NH2 [TT1Ct]
[1]
  Effect on CD68+ cells in the infarct and surrounding tissues: greatly decreased
[2]; concentrations lower than 25 µM
  Intrinsic toxicity: not intrinsically toxic
[2]; higher dose employed (25 µM)
  Toxicity for non-stimulated cultures: toxic
[3]; TT1Ct versus TMyc slips
  Recovery in beam walking test: 49%
[3]; contralateral hind paw slips, beam walking 24 h after insult, 3 nmol/g i.v. 1 h after damage, mean ± SEM, n = 10-12
  Number of slips: 5 ± 1
